For test [1], the system named is Proteus vulgaris. Kind of test: Relative in vitro Antibacterial activity against Proteus vulgaris CN329 strain. The class given is functional. On the set-up: unit not given here.
The subject of test [2] is Salmonella. The class given is functional, salmonella typhosa. The arrangement: unit not given here.
The test system of test [3] is Staphylococcus aureus. Kind of test: Relative in vitro Antibacterial activity against Staphylococcus aureus CN491 strain. The class given is functional. On the set-up: unit not given here.
In test [4] the test system is Escherichia coli. In words: (§1) Relative in vitro Antibacterial activity against Escherichia coli CN314 strain. On the set-up: unit not given here. The class given is functional.
Test [5] deals with T1, Dihydrofolate reductase (Rattus norvegicus, UniProt Q920D2).
T1 sequence (Q920D2 whole entry): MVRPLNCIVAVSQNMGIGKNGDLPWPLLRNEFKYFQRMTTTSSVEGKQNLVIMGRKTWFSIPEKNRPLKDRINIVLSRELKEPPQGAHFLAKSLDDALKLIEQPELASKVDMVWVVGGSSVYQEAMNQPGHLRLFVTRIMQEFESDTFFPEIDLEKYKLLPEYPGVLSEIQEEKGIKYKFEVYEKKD
In words: Binding affinity against Dihydrofolate reductase of rat liver. The note with it: read-out: I50.

Test [6] deals with T2, Dihydrofolate reductase (Rattus norvegicus) (UniProt Q920D2).
T2 sequence (whole entry): T1 sequence (Q920D2 whole entry)
In words: Percent inhibition against Dihydrofolate reductase of rat liver at dose 1.0 mg/kg. On the set-up: dose 1 mg/kg. In kind it is organism-based.

Test [7] has as its system Escherichia coli. The test is described as §1. In kind it is functional. On the set-up: reference not given here.
The target of test [8] is T3, Dihydrofolate reductase (Gallus gallus, UniProt P00378).
T3 sequence (P00378 whole entry): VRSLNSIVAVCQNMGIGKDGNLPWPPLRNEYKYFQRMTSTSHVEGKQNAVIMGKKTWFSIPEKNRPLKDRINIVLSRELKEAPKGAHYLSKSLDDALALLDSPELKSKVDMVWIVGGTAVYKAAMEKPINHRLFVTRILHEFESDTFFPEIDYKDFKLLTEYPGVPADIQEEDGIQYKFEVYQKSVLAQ
Kind of test: Binding affinity against Dihydrofolate reductase of chicken liver. The settings on record: read-out: I50.

Test [9] concerns the target T4, Dihydrofolate reductase (Escherichia coli, UniProt P0ABQ4).
T4 sequence (P0ABQ4 whole entry): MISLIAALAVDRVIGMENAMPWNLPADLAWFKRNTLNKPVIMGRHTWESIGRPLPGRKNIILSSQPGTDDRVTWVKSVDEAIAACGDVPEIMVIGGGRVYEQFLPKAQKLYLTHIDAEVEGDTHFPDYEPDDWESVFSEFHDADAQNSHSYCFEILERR
In words: Relative Binding affinity against Dihydrofolate reductase of Escherichia coli.

Test [10] concerns the target T3, Dihydrofolate reductase. Kind of test: Binding affinity against Dihydrofolate reductase Inhibitor of chicken liver. The note with it: read-out: I50.
Test [11] deals with T2, Dihydrofolate reductase (Rattus norvegicus). In words: Percent inhibition against Dihydrofolate reductase of rat liver at dose 0.9 mg/kg. The class given is organism-based. On the set-up: dose 0.9 mg/kg.
Test [12] has the same target. In words: Percent inhibition against Dihydrofolate reductase of rat liver at dose 0.42 mg/kg. In kind it is organism-based. On the set-up: dose 0.42 mg/kg.

Where only a bound is given, the exact number is not on record here.

As to `COC(=O)CCCCCCOc1cc(Cc2cnc(N)nc2N)cc(OC)c1OC`, the MIC in test [1] was more than 50; in test [2], 50; in test [3] it was 0.2; in test [4], 100. Further, the IC50 in test [5] was determined as 110 µM.
One may read the inhibition as how much of the control response was suppressed. The compound `COC(=O)CCCCOc1c(OC)cc(Cc2cnc(N)nc2N)cc1OC` registered an inhibition in test [6] of 0%.
Consider `COC(=O)CCCCCOc1c(OC)cc(Cc2cnc(N)nc2N)cc1OC`, for which the MIC is listed as more than 100 in [1], 300 in test [2], 6 in test [3] and 1000 in [4].
As for `COC(=O)CCCCCOc1cc(Cc2cnc(N)nc2N)cc(OC)c1OC`, the MIC in [1] is more than 100; in test [2], 30; in test [3] it was 2; in test [4] it was 100. For the same compound, the IC50 in [5] was found to be 180 µM.
Regarding `COc1cc(Cc2cnc(N)nc2N)cc(OC)c1OCCCCCC(=O)O`, the MIC in test [1] is recorded as more than 100; in test [2] it was 30; in test [3] it was 6; in test [4] it was 30.
In the case of `COC(=O)CCCCOc1cc(Cc2cnc(N)nc2N)cc(OC)c1OC`, the MIC is recorded as more than 100 in test [1], 2 in test [3] and 1000 in test [4]. The IC50 in test [5] worked out at 130 µM.
In the case of `COc1cc(Cc2cnc(N)nc2N)cc(OC)c1OCCCCC(=O)O`, in test [5], the IC50 came to 640 µM.
Turning to `COc1cc(Cc2cnc(N)nc2N)cc(OCCCCC(=O)O)c1OC`, the MIC is reported as more than 100 in [1], 300 in test [7] and 2 in test [3]. Also, the IC50 in test [5] was found to be 27 µM.
`COc1cc(Cc2cnc(N)nc2N)cc(OCCCCCC(=O)O)c1OC`: the values for the MIC in test [1], in test [7] and in test [3] were more than 100, 300 and 2, respectively. In [5], the IC50 turned out to be 35 µM.
The corresponding values for `COc1cc(Cc2cnc(N)nc2N)cc(OCC(=O)O)c1OC` are more than 100, 100, more than 200 and 70 µM.
Turning to `COc1cc(Cc2cnc(N)nc2N)cc(OC)c1OCC(=O)O`, the MIC in [1] is given as more than 100; in test [2], 100; in test [3] it was 200; in test [4], 300.
The Ki is the equilibrium dissociation constant of an inhibitor or competing ligand from its target. As to `COc1cc(Cc2cnc(N)nc2N)cc(OC)c1OCCCC(=O)O`, the IC50 stood at 350 µM in [8] and 400 µM in test [5]. Moreover, the affinity in test [9], expressed as Ki, was 0.0052 µM.
As to `COc1cc(Cc2cnc(N)nc2N)cc(OCCCCCCC(=O)O)c1OC`, the MIC is recorded as more than 50 in test [1], 100 in test [7] and 1 in test [3]. The IC50 in [5] is 56 µM.
On to `COc1cc(Cc2cnc(N)nc2N)cc(OC)c1OC` [TRIMETHOPRIM], for which the MIC in test [1], in test [7] and in [3] was 1 in each case.
Take `COc1cc(Cc2cnc(N)nc2N)cc(OCCCC(=O)O)c1OC`: the MIC is more than 100 in test [1], 100 in test [7] and 20 in test [3]. Besides, the IC50 amounted to 22 µM in [10] and 9.7 µM in test [5].
On to `CCOC(=O)CCCOc1cc(Cc2cnc(N)nc2N)cc(OC)c1OC`, for which the MIC in [1] is 50; in test [2], 100; in test [3], 10; in test [4] it was 100. In test [5], the IC50 is 160 µM.
Compound `CCOC(=O)CCCOc1c(OC)cc(Cc2cnc(N)nc2N)cc1OC` registered an inhibition in test [11] of 17%.
In the case of `CCOC(=O)COc1c(OC)cc(Cc2cnc(N)nc2N)cc1OC`, the MIC was more than 100 in [1], 10 in test [2], 60 in [3] and 100 in test [4].
For the compound `COC(=O)COc1cc(Cc2cnc(N)nc2N)cc(OC)c1OC`, the MIC in test [1] was more than 100; in test [2] it was 1000; in test [3], 200; in [4] it was 100. Besides, the inhibition in test [12] was found to be 15%.
Regarding `COc1cc(Cc2cnc(N)nc2N)cc(OCCC(=O)O)c1OC`, the MIC is reported as more than 100 in test [1], 1 in test [7] and 20 in [3]. Besides, in [5], the IC50 came to 74 µM.
